From US20230140983A1, “PYRIDAZINE DERIVATIVES FOR MODULATING NUCLEIC ACID SPLICING” (REMIX THERAPEUTICS INC., priority 2020, published 2023)
Where two headings read alike, the source gives them in different places.

Columns and labels:
Type in all cases: cell-based
HTT [1] = test: Gene panel canonical junction qPCR assay, HTT CJ mRNA; settings: Table 9, CJ mRNA decrease, read-out: HTT IC50 (decrease in CJ mRNA levels)
Description: (§1) To set up 10 uL RT-qPCR reactions, cell lysates were transferred to 384-well qPCR plates containing the master mix according to the table below. The plates were sealed, gently vortexed, and spun down before the run. The volumes were adjusted accordingly in some instances where the reaction was carried in 20 uL. The table below summarizes the components of the RT-qPCR reactions:
(§2) The RT-qPCR reaction was performed using a QuantStudio (ThermoFisher) under the following fast cycling conditions. All samples and standards were analyzed at least in duplicate. In some instances, bulk room temperature (RT) step of 5-10 minutes was completed for all plates before proceeding with qPCR. The table below summarizes the PCR cycle:
(§3) The data analysis was performed by first determining the ΔCt vs the housekeeper gene. This ΔCt was then normalized against the DMSO control (ΔΔCt) and converted to RQ (relative quantification) using the 2^(−ΔΔCt) equation. The RQ were then converted to a percentage response by arbitrarily setting an assay window of 3.5 ΔCt for HTT-CJ and an assay window of 9 ΔCt for HTT-AJ. […] The percentage response was then fitted to the 4 parametric logistic equation to evaluate the concentration dependence of compound treatment. The increase in AJ mRNA is reported as AC50 (compound concentration having 50% response in AJ increase) while the decrease in CJ mRNA levels is reported as IC50 (compound concentration having 50% response in CJ decrease).
(§4) Additional studies were carried out for a larger panel of genes using the protocol provided above. The junction between flanking upstream and downstream exons was used to design canonical junction qPCR assays. At least one of the forward primer, reverse primer or the CY5-labeled 5′ nuclease probe (with 3′ quencher such as ZEN/Iowa Black FQ) was designed to overlap with the exon junction to capture the CJ mRNA transcript. BLAST was used to confirm the specificity of the probeset and parameters such as melting temperature, GC content, amplicon size, and primer dimer formation are considered during their design. Data for the decrease in CJ mRNA levels for three exemplary genes (HTT, SMN2, and Target C) analyzed in this panel are reported as IC50 (compound concentration having 50% response in CJ decrease).

SMN2 = test: Gene panel canonical junction qPCR assay, SMN2 CJ mRNA; settings: Table 9, CJ mRNA decrease, read-out: SMN2 IC50 (decrease in CJ mRNA levels)
Description: as §1, §2, §3, §4

Target C = test: Gene panel canonical junction qPCR assay, Target C CJ mRNA; settings: Table 9, CJ mRNA decrease, read-out: Target C IC50 (decrease in CJ mRNA levels)
Description: as §1, §2, §3, §4

HTT [2] = test: Splicing assay (RT-qPCR on cell lysates) monitoring HTT splice variants: AJ and CJ mRNA; settings: concentration having 50% response
Description: Example 69: Exemplary Splicing Assay for Monitoring Expression Levels of Splice Variants
as §1, §2, §3

[3] = Table 7, decrease in CJ mRNA, read-out: HTT CJ AC50
[4] = Table 7, increase in AJ mRNA, read-out: HTT AJ AC50
[5] = Table 8, decrease in CJ mRNA, read-out: HTT CJ AC50
[6] = Table 8, increase in AJ mRNA, read-out: HTT AJ AC50

SMILES	IC50 (HTT [1]) [nM]	IC50 (SMN2) [nM]	IC50 (Target C) [nM]	AC50 (HTT [2]; [3]) [nM]	AC50 (HTT [2]; [4]) [nM]	AC50 (HTT [2]; [5]) [nM]	AC50 (HTT [2]; [6]) [nM]
CN(c1ccc(-c2ccc(-c3cnn(C)c(=O)c3)c3scnc23)nn1)C1CC(C)(C)NC(C)(C)C1 [Compound 211]	100 to 1000	100 to 1000	100 to 1000				
c1nc2c(-c3cn[nH]c3)ccc(-c3ccc(O[C@@H]4C[C@H]5CC[C@@H](C4)N5)nn3)c2s1 [Compound 184]	100 to 1000	< 100	100 to 1000	< 500	500 to 5000	100 to 1000	< 100
c1nc2c(-c3cn[nH]c3)ccc(-c3ccc(N4CCNCC4)nn3)c2s1 [Compound 185]	> 10000	100 to 1000	> 10000	> 5000	> 5000	> 10000	1000 to 10000
c1n[nH]cc1-c1ccc(-c2ccc(S[C@@H]3C[C@H]4CC[C@@H](C3)N4)nn2)c2[nH]ncc12 [Compound 221]	> 10000	> 10000	> 10000			> 10000	> 10000
c1nc2c(-c3cn[nH]c3)ccc(-c3ccc(N4CCC5(CCNC5)CC4)nn3)c2s1 [Compound 192]	> 10000	> 10000	> 10000			> 10000	> 10000
c1nc2c(-c3cn[nH]c3)ccc(-c3ccc(NC4CCNCC4)nn3)c2s1 [Compound 214, N-(piperidin-4-yl)-6-[4-(1H-pyrazol-4-yl)-1,3-benzothiazol-7-yl]pyridazin-3-amine]	> 10000	100 to 1000	> 10000			> 10000	1000 to 10000
Cn1cc(-c2ccc(-c3ccc(OC4CC(C)(C)NC(C)(C)C4)nn3)c3[nH]ncc23)cn1 [Compound 232, 4-(1-methylpyrazol-4-yl)-7-{6-[(2,2,6,6-tetramethylpiperidin-4-yl)oxy]pyridazin-3-yl}-1H-indazole]	1000 to 10000	100 to 1000	1000 to 10000			1000 to 10000	100 to 1000
c1n[nH]cc1-c1ccc(-c2ccc(O[C@@H]3C[C@H]4CCC[C@@H](C3)N4)nn2)c2[nH]ncc12 [Compound 219]	100 to 1000	< 100	100 to 1000			100 to 1000	100 to 1000
CN(c1ccc(-c2ccc(-c3ccc(=O)n(C)c3)c3scnc23)nn1)C1CC(C)(C)NC(C)(C)C1 [Compound 178]	> 10000	> 10000	> 10000			> 10000	> 10000
CN(c1ccc(-c2ccc(-c3cn[nH]c3)c3ncsc23)nn1)[C@H]1[C@@H]2CNC[C@@H]21 [Compound 205, (exo-)-N-methyl-N-[6-[4-(1H-pyrazol-4-yl)-1,3-benzothiazol-7-yl]pyridazin-3-yl]-3-azabicyclo[3.1.0]hexan-6-amine]	> 10000	1000 to 10000	> 10000			> 10000	> 10000
c1nc2c(-c3cn[nH]c3)ccc(-c3ccc(N[C@@H]4C[C@H]5CCC[C@@H](C4)N5)nn3)c2s1 [Compound 215]	< 100	< 100	< 100			< 100	< 100
CC1(C)CC(Oc2ccc(-c3ccc(-c4cn[nH]c4)c4ncsc34)nn2)CCN1 (stereo not shown) [Compound 182]	1000 to 10000	100 to 1000	1000 to 10000	< 500	500 to 5000	1000 to 10000	1000 to 10000
c1nc2c(-c3cn[nH]c3)ccc(-c3ccc(C4CCNCC4)nn3)c2s1 [Compound 206]	1000 to 10000	< 100	> 10000			1000 to 10000	> 10000
c1nc2c(-c3cn[nH]c3)ccc(-c3ccc(N4CCCC5(CCNC5)C4)nn3)c2s1 (stereo not shown) [Compound 193]	> 10000	> 10000	> 10000			> 10000	> 10000
CN(c1ccc(-c2ccc(-c3cn[nH]c3)c3ncsc23)nn1)[C@@H]1C[C@H]2CC[C@@H](C1)N2 [Compound 213, (exo)-N-methyl-N-{6-[4-(1H-pyrazol-4-yl)-1,3-benzothiazol-7-yl]pyridazin-3-yl}-8-azabicyclo[3.2.1]octan-3-amine]	< 100	< 100	< 100			< 100	< 100
C[C@@H]1C[C@H](N(C)c2ccc(-c3ccc(-c4cn[nH]c4)c4c3NC(=O)C4)nn2)CCN1 [Compound 121, 7-(6-[methyl[(2R,4R)-2-methylpiperidin-4-yl]amino]pyridazin-3-yl)-4-(1H-pyrazol-4-yl)-1,3-dihydroindol-2-one]					> 5000		

SMILES	IC50 (HTT [1]) [nM]	IC50 (SMN2) [nM]	IC50 (Target C) [nM]	AC50 (HTT [2]; [3]) [nM]	AC50 (HTT [2]; [4]) [nM]	AC50 (HTT [2]; [5]) [nM]	AC50 (HTT [2]; [6]) [nM]
CN(c1ccc(-c2ccc(-n3cccn3)c3cc[nH]c23)nn1)[C@@H]1C[C@H]2CC[C@@H](C1)N2 [Compound 113, (1R,3R,5S)—N-methyl-N-[6-[4-(pyrazol-1-yl)-1H-indol-7-yl]pyridazin-3-yl]-8-azabicyclo[3.2.1]octan-3-amine]				500 to 5000	> 5000		
c1nc2c(-c3cn[nH]c3)ccc(-c3ccc(N4CCC45CCNC5)nn3)c2s1 (stereo not shown) [Compound 277]						> 10000	> 10000
c1nc2c(-c3cn[nH]c3)ccc(-c3ccc(N4CCC45CCCNC5)nn3)c2s1 (stereo not shown) [Compound 276]						1000 to 10000	1000 to 10000
CCN(c1ccc(-c2ccc(-c3cn[nH]c3)c3cn[nH]c23)nn1)C1CCNCC1 [Compound 274]						> 10000	> 10000
C[C@@H]1C[C@H](N(C)c2ccc(-c3ccc(-n4cccn4)c4nn[nH]c34)nn2)CCN1 [Compound 117, N-methyl-N-[(2R,4R)-2-methylpiperidin-4-yl]-6-[7-(pyrazol-1-yl)-3H-1,2,3-benzotriazol-4-yl]pyridazin-3-amine]				> 5000	> 5000		
[2H]C([2H])([2H])N(c1ccc(-c2ccc(-c3cn[nH]c3)c3ncsc23)nn1)C1CC(C)(C)NC(C)(C)C1 [Compound 231, N-(2H3)methyl-6-[4-(1H-pyrazol-4-yl)-1,3-benzothiazol-7-yl]-N-(2,2,6,6-tetramethylpiperidin-4-yl)pyridazin-3-amine]						100 to 1000	100 to 1000
C[C@H]1C[C@@H](N(C)c2ccc(-c3ccc(-c4cn[nH]c4)c4cn[nH]c34)nn2)CCN1 [Compound 160]				> 5000	> 5000		
COc1cc(-c2ccc(-c3ccc(N(C)C4CC(C)(C)NC(C)(C)C4)nn3)c3ncsc23)cnn1 [Compound 233]						100 to 1000	100 to 1000
C[C@H]1C[C@H](N(C)c2ccc(-c3ccc(-c4cn[nH]c4)c4cc[nH]c34)nn2)CCN1 [Compound 157]					> 5000		
C[C@H]1C[C@@H](N(C)c2ccc(-c3ccc(-c4cn[nH]c4)c4cc[nH]c34)nn2)CCN1 [Compound 108, N-methyl-N-[(2S,4S)-2-methylpiperidin-4-yl]-6-[4-(1H-pyrazol-4-yl)-1H-indol-7-yl]pyridazin-3-amine]				> 5000	> 5000		
C[C@H]1C[C@@H](N(C)c2ccc(-c3ccc(-n4cccn4)c4cn[nH]c34)nn2)CCN1 [Compound 159]				> 5000	> 5000		
CN(c1ccc(-c2ccc(-n3cccn3)c3nn[nH]c23)nn1)[C@@H]1C[C@H]2CC[C@@H](C1)N2 [Compound 119, (1R,3S,5S)—N-methyl-N-[6-[7-(pyrazol-1-yl)-3H-1,2,3-benzotriazol-4-yl]pyridazin-3-yl]-8-azabicyclo[3.2.1]octan-3-amine]				500 to 5000	> 5000		
CC1(C)CC(Oc2ccc(-c3ccc(-c4cn[nH]c4)c4cn[nH]c34)nn2)CC(C)(C)N1 [Compound 138, 4-(1H-pyrazol-4-yl)-7-[6-[(2,2,6,6-tetramethylpiperidin-4-yl)oxy]pyridazin-3-yl]-1H-indazole]				< 500	500 to 5000		
c1n[nH]cc1-c1ccc(-c2ccc(N3CCCC4(CNC4)C3)nn2)c2[nH]ncc12 [Compound 251]						> 10000	> 10000
c1cc(-c2ccc(N3CCCN3)c3cn[nH]c23)nnc1N[C@@H]1C[C@H]2CC[C@@H](C1)N2 [Compound 278]						< 100	100 to 1000
